Calls of active or inactive are those of the source. The rule behind the calls is not given here.
Columns and labels:
[1] = target: T1, Angiotensin-converting enzyme (Homo sapiens, UniProt P12821); test: Selectivity for ACE C domain over ACE N domain
[2] = target: T1, Angiotensin-converting enzyme; test: Inhibition of testis ACE C domain
[3] = target: T1, Angiotensin-converting enzyme; test: Inhibition of somatic ACE N domain upto 500 uM

T1 sequence (P12821 whole entry): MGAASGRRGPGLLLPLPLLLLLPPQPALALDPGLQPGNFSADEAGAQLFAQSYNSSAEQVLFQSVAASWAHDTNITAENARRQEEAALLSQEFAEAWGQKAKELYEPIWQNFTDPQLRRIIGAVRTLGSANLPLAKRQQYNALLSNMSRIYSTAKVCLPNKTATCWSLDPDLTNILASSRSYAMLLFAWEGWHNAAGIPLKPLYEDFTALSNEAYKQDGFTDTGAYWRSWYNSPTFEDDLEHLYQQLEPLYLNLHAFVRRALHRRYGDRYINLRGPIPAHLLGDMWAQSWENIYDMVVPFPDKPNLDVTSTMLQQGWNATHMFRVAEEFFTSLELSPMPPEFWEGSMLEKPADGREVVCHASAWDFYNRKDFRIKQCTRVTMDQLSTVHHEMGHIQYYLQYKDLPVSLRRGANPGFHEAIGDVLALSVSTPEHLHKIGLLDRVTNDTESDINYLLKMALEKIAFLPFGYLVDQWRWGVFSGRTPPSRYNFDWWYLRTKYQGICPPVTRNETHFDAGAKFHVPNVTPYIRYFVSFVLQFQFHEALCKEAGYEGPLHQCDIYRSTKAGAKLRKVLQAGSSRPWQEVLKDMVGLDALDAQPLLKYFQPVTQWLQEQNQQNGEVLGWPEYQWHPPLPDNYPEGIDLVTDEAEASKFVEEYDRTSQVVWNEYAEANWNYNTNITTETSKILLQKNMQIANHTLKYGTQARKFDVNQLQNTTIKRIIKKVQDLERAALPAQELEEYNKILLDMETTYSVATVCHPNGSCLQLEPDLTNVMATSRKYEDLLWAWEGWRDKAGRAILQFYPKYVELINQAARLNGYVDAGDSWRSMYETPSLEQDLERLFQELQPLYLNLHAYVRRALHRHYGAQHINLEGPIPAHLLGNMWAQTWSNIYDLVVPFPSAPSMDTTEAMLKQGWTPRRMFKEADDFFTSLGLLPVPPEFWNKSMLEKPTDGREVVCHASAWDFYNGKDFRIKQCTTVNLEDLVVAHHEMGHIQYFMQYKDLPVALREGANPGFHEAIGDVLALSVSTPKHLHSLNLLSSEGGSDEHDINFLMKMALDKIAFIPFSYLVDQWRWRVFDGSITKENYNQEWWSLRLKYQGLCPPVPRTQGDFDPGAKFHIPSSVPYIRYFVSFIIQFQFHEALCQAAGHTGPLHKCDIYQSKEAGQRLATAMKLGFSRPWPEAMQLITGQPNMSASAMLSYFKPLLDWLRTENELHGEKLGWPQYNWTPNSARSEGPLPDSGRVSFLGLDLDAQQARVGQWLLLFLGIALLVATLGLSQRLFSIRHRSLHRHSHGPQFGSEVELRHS

Ratio Ki [1]	Ki [2] [µM]	Activity [3]	SMILES
> 25	26.3	inactive	NCCCC[C@H](N[C@H](CCc1ccccc1)C(=O)O)C(=O)N[C@@H](Cc1c[nH]c2ccccc12)C(=O)O
> 100	7	inactive	NCCCC[C@H](N[C@@H](CCc1ccccc1)C(=O)O)C(=O)N[C@@H](Cc1c[nH]c2ccccc12)C(=O)O

Source: ChEMBL document CHEMBL1149517, “Synthesis and molecular modeling of a lisinopril-tryptophan analogue inhibitor of angiotensin I-converting enzyme” (Bioorg Med Chem Lett, 2006)
